For orientation: pEC50 means −log10 of the EC50, conventionally taken in molar units. Lower therefore signals a large EC50.

Experimental findings from patent US20160221948A1, “NITROGEN-CONTAINING SATURATED HETEROCYCLIC COMPOUND” (SUMITOMO CHEMICAL COMPANY, LIMITED, priority 2013, published 2016) are described below.

In this experiment the target is human SSTR4 (Homo sapiens, UniProt P31391). In words: Evaluation of agonist activities using human SSTR4-stably expressing cells (aequorin luminescence). The format is cell-based. The arrangement: expressed in transfected cells; host or cells: HEK293. Particulars: for SSTR4 agonist activity compared with other compounds: Tables 25 to 27; for pEC50: luminescence signal, 1 μmol/L somatostatin taken as 100%. Here is the method: Evaluation of Agonist Activities Using Cells that stably expressing human-derived SSTR4 (human SSTR4-stably expressing cells)
human SSTR4, sequence (P31391 whole entry): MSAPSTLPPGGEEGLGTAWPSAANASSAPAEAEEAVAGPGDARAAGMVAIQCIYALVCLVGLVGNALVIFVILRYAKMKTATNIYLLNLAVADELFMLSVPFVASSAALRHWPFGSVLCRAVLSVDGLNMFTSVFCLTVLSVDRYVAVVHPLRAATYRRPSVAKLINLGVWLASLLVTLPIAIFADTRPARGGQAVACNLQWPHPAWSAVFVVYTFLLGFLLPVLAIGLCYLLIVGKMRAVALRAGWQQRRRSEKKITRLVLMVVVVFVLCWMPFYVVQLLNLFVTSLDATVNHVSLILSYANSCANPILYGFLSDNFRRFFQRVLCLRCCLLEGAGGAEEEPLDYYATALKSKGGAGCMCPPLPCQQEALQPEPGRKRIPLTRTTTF
(1) Human SSTR4-Stably Expressing Cells
Human SSTR4-stably expressing cells were prepared, and cultured. Specifically, HEK293 cells, human kidney-derived cells, were used as host cells. By introducing pcDNA3.1 (cat. No. V79020, invitrogen, Carlsbad, Calif., USA) to which human SSTR gene was inserted into HEK293 cells, human SSTR4-stably expressing cell line was obtained. For selection, G418 (cat. No. 16513-84, Nacalai tesque, Japan) was used.
As the culture medium, D-MEM medium (cat. No. 11995, GIBCO, USA), containing 10% FBS and 200 μg/mL G418, was used, the culture was performed in a 225 cm^2 flask (cat. No. 11-006-010, Iwaki, Japan).
At about 80% confluence, the cells were harvested by treating with 20-fold diluted 0.25% Trypsin-EDTA (cat. No. 35554-64, Nacalai, tesque, Japan). The harvested cells were prepared at a reaction medium composed of Hanks Buffer (cat. No. 14065-056, invitrogen, Carlsbad, Calif., USA)/20 mM Hepes (cat. No. 15630-080, invitrogen, Carlsbad, Calif., USA), and 0.1% BSA (cat. No. A7906, Sigma Aldrich, USA) to 70000 cells/mL. Gα16 and apoaequorin were transiently introduced to the harvested cells, and the cells were seeded to a 384 well plate (cat. No. 781090, Greiner, Germany) at about 2000 cells/30 μL/well. On the next day of cell seeding, Coelenterazine H (cat. No. S2011, Promega, USA) was added to each well (10 μL/well) to make a final concentration of 0.5 μmol/L, and the plate was centrifuged. Then, the plate was left at room temperature for 4 hours in shaded state.
(2) Preparation of Test Compounds
DMSO solution of each test compound having 1000-fold larger concentration than the final concentration was prepared. The DMSO solutions were made to have 10-fold concentration than the final concentration with Hanks/20 mmol/L Hepes/0.1% BSA.
(3) Evaluation of Agonist Activity
For detection of luminescence signal due to SSTR4-stimulation, FDSS7000 (manufactured by Hamamatsu Photonics K.K.) was used. To plates having cells and the luminescence substrate, solutions of test compounds were added, then each luminescence signal was measured for 90 seconds, and each relative luminescence unit (RLU) was calculated. Based on luminescence signal from the wells to which a 1 μmol/L somatostatin solution was added taken as 100%, agonist activity of each test compound was evaluated.

pEC50: −log10 of the molar value.

On to `CCN1CCC[C@H](C(=O)NC(C)(C)c2ccccc2Cl)C1` [Example 110, (3S)—N-[2-(2-chlorophenyl)propane-2-yl]-1-ethylpiperidine-3-carboxyamide], for which the “SSTR4 agonist activity compared with other compounds” value is given as “stronger SSTR4 agonist activity” and the pEC50 is 8.55.

Consider `CN1CCC[C@H](C(=O)NC(C)(C)c2cccc(S(C)(=O)=O)c2)C1` [Example 62], for which the pEC50 was under 7.00.

Consider `CCC(C)N1CCCC(C(=O)NC(C)(C)c2cccc3ccccc23)C1` (stereo not shown) [Example 120], for which the negative logarithm of the EC50 (pEC50) is 7.64.

With `CN1CCC[C@H](C(=O)NC(C)(C)c2cccc(Cl)c2Cl)C1` [Example 19, (3S)—N-[2-(2,3-dichlorophenyl)propane-2-yl]-1-methylpiperidine-3-carboxamide], the “SSTR4 agonist activity compared with other compounds” value is “stronger SSTR4 agonist activity” and the pEC50 is 8.74.

On to `COc1cc(Cl)ccc1C(C)(C)NC(=O)[C@H]1CCCN(C)C1` [Example 30, (3S)—N-[2-(4-chloro-2-methoxylphenyl)propane-2-yl]-1-methylpiperidine-3-carboxamide], for which the “SSTR4 agonist activity compared with other compounds” value is recorded as “stronger SSTR4 agonist activity” and the pEC50 is 8.82.

In turn, `CC(C)(NC(=O)C1CCCN(CCF)C1)c1cccc2ccccc12` (stereo not shown) [Example 112] showed a pEC50 of under 7.00.

Regarding `CCCN1CCCC(C(=O)NC(C)(C)c2cccc3ccccc23)C1` (stereo not shown) [Example 117], the pEC50 was 8.16.

For the compound `Cc1cccc(C(C)(C)NC(=O)[C@H]2CCCN(C)C2)c1Cl` [Example 26, (3S)—N-[2-(2-chloro-3-methylphenyl)propane-2-yl]-1-methylpiperidine-3-carboxamide], the “SSTR4 agonist activity compared with other compounds” value was “stronger SSTR4 agonist activity” and the pEC50 was 8.66.

`CN1CC(C(=O)NC(C)(C)c2cccc3ccccc23)CC(C)(C)C1` (stereo not shown) [Example 93] gave a pEC50 of 8.22.

Turning to `CC[C@@H]1CC[C@H](C(=O)NC(C)(C)c2cccc3ccccc23)CN1C` (relative stereo) [Example 90], the “SSTR4 agonist activity compared with other compounds” value is “stronger SSTR4 agonist activity” and the pEC50 was 8.51.

In the case of `CN1CCC[C@H](C(=O)NC(C)(C)c2ccsc2)C1` [Example 59], the pEC50 is under 7.00.

`CN1CC(C(=O)NC(C)(C)c2cccc(Cl)c2Cl)CC(F)(F)C1` (stereo not shown) [Example 101] gave a pEC50 of 7.47.

`CN1CCC[C@H](C(=O)NC(C)(C)c2ccccc2OC(F)(F)F)C1` [Example 60, (3S)—N-{2-[2-(trifluoromethoxy)phenyl]propane-2-yl}-1-methylpiperidine-3-carboxamide] showed a pEC50 of 8.32.

`CN1CCC[C@H](C(=O)NC(C)(C)c2cc(F)ccc2Cl)C1` [Example 73, (3S)—N-[2-(2-chloro-5-fluorohenyl)propane-2-yl]-1-methylpiperidine-3-carboxamide] showed a pEC50 of 8.15.

In the case of `Cc1cc(Cl)ccc1C(C)(C)NC(=O)[C@H]1CCCN(C)C1` [Example 28], the pEC50 was 7.91.

As to `Cc1cccc(C(C)(C)NC(=O)[C@H]2CCCN(C)C2)c1C` [Example 23, (3S)—N-[2-(2,3-dimethylphenyl)propane-2-yl]-1-methylpiperidine-3-carboxamide], the pEC50 is 8.13.

Compound `CN1CCCC(C(=O)NC(c2cccc3ccccc23)C(F)(F)F)C1` (stereo not shown) [Example 3] gave a pEC50 of 7.90.

The compound `COc1ccccc1C(C)(C)NC(=O)[C@@H]1CN(C)CC[C@@H]1c1ccccc1` (relative stereo) [Example 107] gave a pEC50 of under 7.00.

Take `CC(C)Cc1cc(Cl)ccc1C(C)(C)NC(=O)[C@H]1CCCN(C)C1` [Example 34]: the pEC50 was under 7.00.

`CC(C)N1CCC[C@H](C(=O)NC(C)(C)c2ccccc2Cl)C1` [Example 121] gave a pEC50 of 7.93.

With `CN1CCC[C@H](C(=O)NC(C)(C)c2c(F)cccc2Cl)C1` [Example 74], the pEC50 was 7.68.

In the case of `COc1cccc(C(C)(C)NC(=O)[C@H]2CCCN(C)C2)c1` [Example 70], the pEC50 was under 7.00.

For `CSc1ccccc1C(C)(C)NC(=O)[C@H]1CCCN(C)C1` [Example 65], the pEC50 was 8.21.

As for `COC[C@@H]1CC[C@@H](C(=O)NC(C)(C)c2cccc3ccccc23)CN1C` (relative stereo) [Example 104], the pEC50 is 7.09.

With `Cc1c(Cl)cccc1C(C)(C)NC(=O)[C@@H]1CC[C@H](C)N(C)C1` (relative stereo) [Example 87], the pEC50 was 8.03.

In the case of `COc1ccc(F)cc1C(C)(C)NC(=O)[C@H]1CCCN(C)C1` [Example 54, (3S)—N-[2-(5-fluoro-2-methoxylphenyl)propane-2-yl]-1-methylpiperidine-3-carboxamide], the pEC50 was 8.09.

The compound `CN1CCC[C@H](C(=O)NC(C)(C)c2cccc(F)c2)C1` [Example 75] had a pEC50 of 7.13.

`C[C@@H]1CC[C@@H](C(=O)NC(C)(C)c2cccc3ccccc23)CN1C` (relative stereo) [Example 82] gave a pEC50 of 8.96.

For `CN1CC(C(=O)NC(C)(C)c2cccc(Cl)c2Cl)CCC1(C)C` (stereo not shown) [Example 97], the pEC50 is 7.07.

As for `CN1CC[C@H](C(=O)NC(C)(C)c2ccccc2Cl)C1` [Example 79], the pEC50 is 7.36.

Compound `COC1CC(C(=O)NC(C)(C)c2cccc3ccccc23)CN(C)C1` (stereo not shown) [Example 91] gave a pEC50 of 8.59.

`CN1CCC(C(=O)NC(C)(C)c2cccc3ccccc23)C1` (stereo not shown) [Example 77] had a pEC50 of 8.52.

Take `Cc1cccc(C2(NC(=O)C3CCCN(C)C3)CC2)c1C` (stereo not shown) [Example 5, N-[1-(2,3-dimethylphenyl)cyclopropyl]-1-methylpiperidine-3-carboxamide]: the pEC50 is 7.47.

For `Cc1ccc(Cl)c(C(C)(C)NC(=O)[C@H]2CCCN(C)C2)c1` [Example 38, (3S)—N-[2-(2-chloro-5-methylphenyl)propane-2-yl]-1-methylpiperidine-3-carboxamide], the pEC50 was 8.30.

Regarding `COc1ccccc1C(C)(C)NC(=O)[C@H]1CCCN(C)C1` [Example 53], the pEC50 is 8.06.

`CN1CCCC(C(=O)NC(C)(C)c2ccc(Cl)c(Cl)c2)C1` (stereo not shown) [Example 10] gave a pEC50 of 7.62.

`CC[C@@H]1CC[C@@H](C(=O)NC(C)(C)c2cccc3ccccc23)CN1C` (relative stereo) [Example 89] gave a pEC50 of 7.95.

As to `Cc1ccc(C)c(C(C)(C)NC(=O)[C@H]2CCCN(C)C2)c1` [Example 49], the pEC50 was 7.92.

Compound `Cc1cc(Cl)ccc1C(C)(C)NC(=O)C1CCCN(C)C1` (stereo not shown) [Example 12, N-[2-(4-chloro-2-methylphenyl)propane-2-yl]-1-methylpiperidine-3-carboxamide] had a pEC50 of 8.01.

Regarding `Cc1cc(Cl)cc(C(C)(C)NC(=O)C2CCCN(C)C2)c1` (stereo not shown) [Example 11], the pEC50 was 8.08.

In turn, `CN1CCC[C@H](C(=O)NC(C)(C)c2ccncc2)C1` [Example 58] showed a pEC50 of under 7.00.

As for `CN1CCC[C@H](C(=O)NC(C)(C)c2ccc(F)cc2)C1` [Example 69], the pEC50 was under 7.00.

Consider `Cc1cccc(C(C)(C)NC(=O)C2CCCN(C)C2)c1Cl` (stereo not shown) [Example 13], for which the “SSTR4 agonist activity compared with other compounds” value is “stronger SSTR4 agonist activity” and the pEC50 is 8.43.

In turn, `Cc1cc(C(C)(C)NC(=O)[C@H]2CCCN(C)C2)ccc1Cl` [Example 48] showed a pEC50 of 8.00.

On to `C[C@@H]1[C@H](C(=O)NC(C)(C)c2cccc3ccccc23)CCCN1C` (relative stereo) [Example 84], for which the pEC50 is 7.70.

For the compound `CN1CCCC(C(=O)NC(C)(C)c2cccc(Cl)c2Cl)C1c1ccccc1` (stereo not shown) [Example 98], the negative logarithm of the EC50 (pEC50) is under 7.00.

In turn, `CN1CCC(C(=O)NC(C)(C)c2ccccc2)C1` (stereo not shown) [Example 78] showed a pEC50 of under 7.00.

`Cc1cccc(C(C)(C)NC(=O)[C@@H]2CC[C@H](C)N(C)C2)c1Cl` (relative stereo) [Example 88] gave a pEC50 of 8.12.

The compound `CCCN1CCC[C@H](C(=O)NC(C)(C)c2cccc3ccccc23)C1` [Example 114] had a pEC50 of 8.21.

Compound `C[C@@H]1CC[C@H](C(=O)NC(C)(C)c2cccc(Cl)c2Cl)CN1C` (relative stereo) [Example 96] gave a pEC50 of 7.93.

For the compound `CC1CC(C(=O)NC(C)(C)c2cccc(Cl)c2Cl)CN(C)C1` (stereo not shown) [Example 100], the pEC50 is 7.55.

For the compound `CN1CCC[C@H](C(=O)NC(C)(C)c2ccccc2OC(F)F)C1` [Example 66], the pEC50 is 7.69.
